In patent US8101410B2 (Entelechon GmbH, priority 2005, dated 2012):
Read-outs that look alike come from different tables or passages of the source.

Assays:
[1] = test system: wild type/non-transgenic lines of Brassica juncea cv. Varuna; experiment: Seed germination in the presence of kanamycin; format: in vivo
Solanum tuberosum L. = conditions: Haldrup et al. (1998); cited from earlier work
plant cells [2] = conditions: Table 2, range over plant species, literature; cited from earlier work
Nicotiana tabacum L. [3] = conditions: Haldrup et al. (1998); cited from earlier work
[4] = test system: Lycopersicon esculentum L.; conditions: Haldrup et al. (1998); cited from earlier work
plant cells [5] = conditions: Table 2, choline, present investigations
Nicotiana tabacum L. [6] = conditions: Present Investigations
[7] = test system: Nicotiana tabacum cv. Petit Havana SR1 shoots
Method: In one set of experiments uniformly looking ˜1 cm long shoots were taken while in a second set of experiments a bunch of 6-8 shoots were used.
For this purpose, shoots of Nicotiana tabacum cv. Petit Havana SR1 were obtained by multiplying the shoots regenerated from the leaf segments on MS medium supplemented with 2 mg/l BAP.

[8] = test system: Brassica juncea wild type shoots
[9] = test system: Brassica juncea cv. Varuna explants (wild type)
Brassica juncea L. = conditions: Present Investigations
[10] = test system: shoots of codAps transgenic lines A, B, D and E of Brassica juncea cv. Varuna
Source text: The codA gene was isolated in the inventors' laboratory from local strain of Arthrobacter globiformis (GenBank accession number AY589052, hereafter referred as codAps gene) and cloned into pPZP200lox(npt 11) vector (obtained from Dr. Deepak Pental, Department of Genetics, South Campus, University of Delhi, New Delhi, India). The resultant vector named as pSG was electroporated into Agrobacterium tumefaciens strain GV3101. Hypocotyl and cotyledonary petiolar explants were excised from 6 d old sterile seedlings were transformed using Agrobacterium tumefaciens strain GV3101/pSG/codAps.

[11] = test system: Brassica juncea cv. Varuna wild type seeds/seedlings
Method: (§1) T2 seeds of various independent homozygous transgenic lines of Brassica juncea cv. […] Homozygous transgenic genotypes were identified based on 100 percent germination of T2 seed of various independent transformed lines in the presence of 50 mg/l kanamycin.

[12] = test system: homozygous codAps transgenic lines A, B, D and E of Brassica juncea cv. Varuna seeds/seedlings; conditions: for seedling growth: transgenic lines
Method: as §1
For these studies seeds from four homozygous transgenic lines (lines A, B, D and E) of T2 generation were used. The homozygous genotypes were identified based on 100 percent germination of seed in the presence of 50 mg/l kanamycin (i.e. otherwise lethal to wild type/non-transgenic lines).

[13] = lower concentrations of choline, shoot induction medium
[14] = 60 mM choline, transgenic lines

In the case of `NC[C@H]1O[C@H](O[C@H]2[C@H](O)[C@@H](O[C@H]3O[C@H](CO)[C@@H](O)[C@H](N)[C@H]3O)[C@H](N)C[C@@H]2N)[C@H](O)[C@@H](O)[C@@H]1O` [Kanamycin], the “kanamycin concentration lethal to wild type/non-transgenic lines” value [1] is reported as 50 mg/L.

For `O=C[C@H](O)[C@@H](O)[C@H](O)CO` [Xylose], the Selection concentration (Solanum tuberosum L.) is listed as 3750 mg/L, the Selection concentration (plant cells [2]) is listed as 3750 to 20000 mg/L and the Selection concentration (Nicotiana tabacum L. [3]) is listed as 20000 mg/L. For the same molecule, the Selection concentration [4] was 15000 mg/L.

With `C[N+](C)(C)CCO.[Cl-]` [Choline, choline chloride] the Selection concentration (plant cells [5]) was 5584 mg/L, the Selection concentration (Nicotiana tabacum L. [6]) was 5584 mg/L and the “time to loss of green pigmentation followed by senescence/death after inoculation” value ([7]; 40 mM choline) was no more than 7 days. For the same molecule, the shoot growth ([7]; MS medium with choline chloride 20 and 40 mM) was “significantly curtailed shoot growth”, the growth of shoots ([8]; MS medium with choline chloride 5-60 mM, wild type) was “significantly curtailed the growth of shoots” and the “time to death of shoots after inoculation” value ([8]; choline 20 mM and above, wild type shoots) was no more than 15 days. The “choline concentration giving loss in green pigmentation followed by browning/senescence leading to death” value ([8]; wild type shoots, MS medium) was no less than 20 mM, the “cotyledonary explants that lost green pigmentation completely” value ([9]; 40 mM choline) was roughly 100% and the cultures exhibiting callogenesis ([9]; 40 mM choline) was 100%. For the same molecule, the “shoot induction (caulogenesis) from hypocotyl and cotyledonary petiolar explants” value ([9]; choline chloride 10, 20, 30, 40 mM in shoot induction medium (MS + BAP, NAA, AgNO3), 20 d) was “suppressed shoot induction”, the “expansion of the cotyledonary leaves of cotyledonary petiolar explants” value ([9]; choline in shoot induction medium, effect increases with concentration) was “significantly curtailed the expansion of the cotyledonary leaves” and the “callogenesis i.e. callus induction” value [9, 13] was “did not cause any significant alteration in callogenesis”. The rhizogenesis [9, 13] was “promoted rhizogenesis”, the Selection concentration (Brassica juncea L.) was 5584 mg/L and the “growth of the shoots” value ([10]; 40 mM choline, transgenic lines) was “no significant alteration in the growth”. For the same molecule, the green pigmentation [10, 14] was “no loss in green pigmentation”, the growth of shoots [10, 14] was “suppression in the growth” and the “choline concentration that shoots were able to withstand” value ([10]; transgenic lines A, B, D, E, MS medium) was no more than 60 mM. The “fresh weight of seedlings, lower than those raised in absence of choline” value ([11]; 40 mM choline, MGM, 30 d) was 90%, the “seed germination and early seedling growth” value ([11]; MGM (half strength MS without sucrose/organics) with choline) was “significantly curtailed” and the “percent seed germination as well as seedling growth” value ([11]; MS medium supplemented with choline (20, 40 mM)) was “suppressed significantly”. For the same molecule, the seed germination ([11]; MS medium, 40 mM choline) was “almost no/little seed germination”, the “fresh weight of seedlings, lower than respective controls” value ([12]; four independent transgenic lines, 40 mM choline, MGM, 30 d) was 25-30% and the “seed germination and seedling growth” value ([12]; transgenic lines A, B, D, E, MGM, 40 mM choline vs 20 mM) was “delay in seed germination as well as reduction in seedling growth”. The seed germination ([12]; transgenic lines A, B, D, E, MS medium, all concentrations of choline tested (20, 40 mM)) was 100%, the seedling growth ([12]; MS medium, 20 mM choline and below) was “comparable to those grown in the absence of choline” and the seedling growth ([12]; MS medium, 40 mM choline) was “significant reduction in seedling growth”.

In the case of `CP(=O)(O)CC[C@H](N)C(=O)O` [Phosphinothricin], the Selection concentration (plant cells [2]) is given as 5 to 10 mg/L.

In the case of `[Cl-].[K+]` [potassium chloride, reference compound], the shoot induction ([9]; potassium chloride 10, 20, 30, 40 mM in place of choline chloride) is reported as “no significant alteration” and the “expansion of cotyledons and/or green pigmentation” value ([9]; potassium chloride at highest concentration (40 mM)) is reported as “did not cause any suppression in the expansion of cotyledons and/or alteration in green pigmentation”.
